{"source": "patent US20220057377A1", "about": "“ANALYTICAL METHOD FOR DETERMINATION OF IN VITRO DRUG RELEASE PROFILE FROM MICRONEEDLE PATCHES” (ZOSANO PHARMA CORPORATION, priority 2020, published 2022)", "key": {"[1]": {"assay": "Solubility of zolmitriptan at room temperature in PBS, water and IPA (in-house)", "format": "physicochemical", "description": "The solubility of zolmitriptan at room temperature in phosphate buffer saline (PBS), water, and isopropyl alcohol (IPA) were evaluated in-house. Zolmitriptan API was added into 200 mL of water, 10 mM phosphate buffer saline (PBS) at pH 7.4, and IPA until saturated. The solutions were then mixed at room temperature by stir bar overnight. Saturated solutions at 2 and 24 hours were filtered and analyzed for drug concentration by HPLC."}, "Sink condition": {"assay": "Sink condition", "format": "physicochemical", "description": "The sink condition is defined as having a volume of medium at least three times that required to form a saturated solution of drug substance. […] The microneedle patch is coated with a specific amount (mg) of the bioactive agent and is intended to deliver a certain percentage of the drug. Based on the data from the solubility study described above, the sink condition can be met by various media.\nThe M207 patch is coated with 1.9 mg of zolmitriptan and is intended to deliver 100% of the drug. The mean drug content specification is 90.0%-110.0% of 1.9 mg. Based on the data from the solubility study, the sink condition was met for both the water and 10 mM PBS medium when applying volume of release medium of >6 mL. This is greater than three times the saturated solution in PBS (˜1.6 mL) for 1.9 mg of zolmitriptan released from the M207 patch."}, "[2]": {"assay": "Stability of zolmitriptan in 10 mM PBS release media", "format": "physicochemical", "description": "In order for the drug to have fully released from the patches, a complete release time of 22 hours was noted. Therefore, stability of zolmitriptan in the release medium was evaluated for up to 24 hours."}, "[3]": {"assay": "Sample solution stability at 2-8° C.", "format": "physicochemical", "description": "Sample solutions containing the released drug after the drug release tests were stored at 2-8° C. for a few days and injected to check the stability of the solution. Six sample solutions from each time points were aliquoted from release test tube and stored in refrigerator at 2-8 C for 15 days before being analyzed by HPLC. […] For the solution concentration is close to 1×-5× of the quantitation limit, 85%-115% recovery from fresh sample is considered reasonable."}, "[4]": {"conditions": "cited from earlier work"}}, "note": "“And” between values parts separate entries of the source, which are not always exact repeats. Identical values can stand only once. Like-named read-outs stand apart in the source and are kept apart here."}
{"smiles": "CN(C)CCc1c[nH]c2ccc(C[C@H]3COC(=O)N3)cc12", "note": "[zolmitriptan]", "values": [{"measurement": "solubility", "setting": "[1]; 10 mM PBS, pH 7.4, aqueous buffer, thermodynamic from solid", "result": "~1200", "unit": "µg/mL"}, {"measurement": "Zolmitriptan Concentration (saturated solution)", "setting": "[1]; 10 mM PBS, pH 7.4, mixed 24 hours, room temperature", "result": 1213.19, "unit": "µg/mL"}, {"measurement": "solubility thermodynamic at 2 h", "setting": "[1]; 10 mM phosphate buffer saline, aqueous buffer, thermodynamic from solid, 10 mM PBS, pH 7.4, mixed 2 hours, room temperature, read-out: Zolmitriptan Concentration (saturated solution)", "result": 1240, "unit": "µg/mL"}, {"measurement": "Zolmitriptan Concentration (saturated solution)", "setting": "[1]; 100% IPA, mixed 2 hours, room temperature", "result": 1691.82, "unit": "µg/mL"}, {"measurement": "Zolmitriptan Concentration (saturated solution)", "setting": "[1]; HPLC grade Water, mixed 2 hours, room temperature", "result": 944.05, "unit": "µg/mL"}, {"measurement": "Zolmitriptan Concentration (saturated solution)", "setting": "[1]; HPLC grade Water, mixed 24 hours, room temperature", "result": 1061.33, "unit": "µg/mL"}, {"measurement": "solubility", "setting": "[1]; isopropyl alcohol (IPA), organic solvent or mixture, thermodynamic from solid", "result": "~1700", "unit": "µg/mL"}, {"measurement": "solubility", "setting": "[1]; water, thermodynamic from solid", "result": "~1000", "unit": "µg/mL"}, {"measurement": "volume of saturated solution in PBS", "setting": "Sink condition; for 1.9 mg of zolmitriptan released from the M207 patch", "result": "~1.6", "unit": "mL"}, {"measurement": "volume of release medium at which sink condition was met", "setting": "Sink condition; water and 10 mM PBS medium, 1.9 mg zolmitriptan", "result": "> 6", "unit": "mL"}, {"measurement": "After 24 hours at 32° C. Concentration", "setting": "[2]; T0 Concentration 0.49 μg/mL", "result": 0.50, "unit": "µg/mL"}, {"measurement": "After 24 hours at 32° C. Concentration", "setting": "[2]; T0 Concentration 5.00 μg/mL", "result": 5.02, "unit": "µg/mL"}, {"measurement": "After 24 hours at 32° C. Concentration", "setting": "[2]; T0 Concentration 335.94 μg/mL", "result": 335.94, "unit": "µg/mL"}, {"measurement": "stability in release media", "setting": "[2]; up to 24 hours at 32° C.", "result": "remained stable"}, {"measurement": "Drug Amount", "setting": "[3]; T = 15 days at 2-8 C, 1 hour release time point, Average of 6", "result": 0.22, "unit": "mg"}, {"measurement": "Drug Amount", "setting": "[3]; T = 15 days at 2-8 C, 1 hour release time point, individual sample", "result": "0.22 mg and 0.20 mg (2×) and 0.25 mg and 0.23 mg and 0.21 mg"}, {"measurement": "Drug Amount", "setting": "[3]; T = 15 days at 2-8 C, 2 hours release time point, Average of 6", "result": 0.33, "unit": "mg"}, {"measurement": "Drug Amount", "setting": "[3]; T = 15 days at 2-8 C, 2 hours release time point, individual sample", "result": "0.33 mg (3×) and 0.35 mg and 0.32 mg (2×)"}, {"measurement": "Drug Amount", "setting": "[3]; T = 15 days at 2-8 C, 3 hours release time point, Average of 6", "result": 0.29, "unit": "mg"}, {"measurement": "Drug Amount", "setting": "[3]; T = 15 days at 2-8 C, 3 hours release time point, individual sample", "result": "0.29 mg (2×) and 0.31 mg and 0.30 mg and 0.26 mg (2×)"}, {"measurement": "Drug Amount", "setting": "[3]; T = 15 days at 2-8 C, 5 hours release time point, Average of 6", "result": 0.42, "unit": "mg"}, {"measurement": "Drug Amount", "setting": "[3]; T = 15 days at 2-8 C, 5 hours release time point, individual sample", "result": "0.41 mg and 0.48 mg and 0.44 mg and 0.36 mg and 0.42 mg and 0.38 mg"}, {"measurement": "Drug Amount", "setting": "[3]; T = 15 days at 2-8 C, 12 hours release time point, Average of 6", "result": 0.63, "unit": "mg"}, {"measurement": "Drug Amount", "setting": "[3]; T = 15 days at 2-8 C, 12 hours release time point, individual sample", "result": "0.60 mg and 0.83 mg and 0.76 mg and 0.46 mg and 0.64 mg and 0.51 mg"}, {"measurement": "Drug Amount", "setting": "[3]; T = 15 days at 2-8 C, 22 hours release time point, Average of 6", "result": 0.18, "unit": "mg"}, {"measurement": "Drug Amount", "setting": "[3]; T = 15 days at 2-8 C, 22 hours release time point, individual sample", "result": "0.15 mg and 0.28 mg and 0.25 mg and 0.10 mg and 0.17 mg and 0.12 mg"}, {"measurement": "Drug Amount", "setting": "[3]; Time Zero, 1 hour release time point, Average of 6", "result": 0.21, "unit": "mg"}, {"measurement": "Drug Amount", "setting": "[3]; Time Zero, 2 hours release time point, Average of 6", "result": 0.33, "unit": "mg"}, {"measurement": "Drug Amount", "setting": "[3]; Time Zero, 3 hours release time point, Average of 6", "result": 0.28, "unit": "mg"}, {"measurement": "Drug Amount", "setting": "[3]; Time Zero, 5 hours release time point, Average of 6", "result": 0.41, "unit": "mg"}, {"measurement": "Drug Amount", "setting": "[3]; Time Zero, 12 hours release time point, Average of 6", "result": 0.63, "unit": "mg"}, {"measurement": "Drug Amount", "setting": "[3]; Time Zero, 22 hours release time point, Average of 6", "result": 0.17, "unit": "mg"}, {"measurement": "Drug Amount", "setting": "[3]; Time Zero, sample solution of 1 hour release time point, individual sample", "result": "0.21 mg and 0.2 mg (2×) and 0.19 mg and 0.24 mg and 0.22 mg"}, {"measurement": "Drug Amount", "setting": "[3]; Time Zero, sample solution of 2 hours release time point, individual sample", "result": "0.33 mg (2×) and 0.34 mg and 0.32 mg (2×) and 0.31 mg"}, {"measurement": "Drug Amount", "setting": "[3]; Time Zero, sample solution of 3 hours release time point, individual sample", "result": "0.28 mg (3×) and 0.3 mg and 0.26 mg (2×)"}, {"measurement": "Drug Amount", "setting": "[3]; Time Zero, sample solution of 5 hours release time point, individual sample", "result": "0.41 mg and 0.48 mg and 0.43 mg and 0.36 mg and 0.42 mg and 0.37 mg"}, {"measurement": "Drug Amount", "setting": "[3]; Time Zero, sample solution of 12 hours release time point, individual sample", "result": "0.59 mg and 0.85 mg and 0.75 mg and 0.45 mg and 0.63 mg and 0.51 mg"}, {"measurement": "Drug Amount", "setting": "[3]; Time Zero, sample solution of 22 hours release time point, individual sample", "result": "0.15 mg and 0.27 mg and 0.24 mg and 0.09 mg and 0.17 mg and 0.12 mg"}, {"measurement": "volume of solution in which each gram of solute dissolved", "setting": "[4]; aqueous solution, pH range 4-14", "result": "~10,000 mL"}, {"measurement": "Approximate volume of solvent in mL per gram of solute", "setting": "[4]; pH 1", "result": "From 10 to 30 mL per gram of solute"}, {"measurement": "Descriptive Term (solubility)", "setting": "[4]; pH 1", "result": "Soluble"}, {"measurement": "Approximate volume of solvent in mL per gram of solute", "setting": "[4]; pH 2", "result": "From 100 to 500 mL per gram of solute"}, {"measurement": "Descriptive Term (solubility)", "setting": "[4]; pH 2", "result": "Slightly soluble"}, {"measurement": "Approximate volume of solvent in mL per gram of solute", "setting": "[4]; pH 3", "result": "More than 10,000 mL per gram of solute"}, {"measurement": "Descriptive Term (solubility)", "setting": "[4]; pH 3", "result": "Practically insoluble"}, {"measurement": "Approximate volume of solvent in mL per gram of solute", "setting": "[4]; pH 4", "result": "More than 10,000 mL per gram of solute"}, {"measurement": "Descriptive Term (solubility)", "setting": "[4]; pH 4", "result": "Practically insoluble"}, {"measurement": "Approximate volume of solvent in mL per gram of solute", "setting": "[4]; pH 7", "result": "More than 10,000 mL per gram of solute"}, {"measurement": "Descriptive Term (solubility)", "setting": "[4]; pH 7", "result": "Practically insoluble"}, {"measurement": "Approximate volume of solvent in mL per gram of solute", "setting": "[4]; pH 14", "result": "More than 10,000 mL per gram of solute"}, {"measurement": "Descriptive Term (solubility)", "setting": "[4]; pH 14", "result": "Practically insoluble"}, {"measurement": "solubility in aqueous solution (descriptive)", "setting": "[4]; pH range 4-14", "result": "slightly soluble to very slightly soluble"}]}
